Experimental data: paper PMC5667462, “Benzoylphenyl thiocyanates are new, effective inhibitors of the mycobacterial resuscitation promoting factor B protein” (Annals of Clinical Microbiology and Antimicrobials, 2017)

Target: T1, RpfB (catalytic domain, residues 280-362) (Mycobacterium tuberculosis, UniProt P9WG29)
Experiment: intrinsic tryptophan fluorescence quenching (Stern-Volmer)
Format: binding
Settings: 50 mM phosphate buffer, pH 6.0; room temperature; RpfB 25.6 μg/ml; excitation 280 nm

T1 sequence (P9WG29 280-362): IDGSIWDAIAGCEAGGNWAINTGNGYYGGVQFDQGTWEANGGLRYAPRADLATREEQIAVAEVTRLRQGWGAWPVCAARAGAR

| SMILES | intrinsic tryptophan fluorescence quenching (Stern-Volmer) |
| --- | --- |
| N#CSc1ccc(C(=O)c2ccc(SC#N)c([N+](=O)[O-])c2)cc1[N+](=O)[O-] [IV, Bis(4-thiocyano-3-nitrophenyl)methanone] | confirmed by quenching of Rpf’s autofluorescence by the compound (IV) |

Target: T1, RpfB (catalytic domain, residues 280-362)
Experiment: release of fluorescent fragments from FITC-labelled peptidoglycan
Format: biochemical
Settings: read-out: IC50 Rpf-hydrolysis of PG, μM / M. tuberculosis
From the text: release of fluorescent fragments from FITC-labelled peptidoglycan on RpfB (catalytic domain, residues 280-362)

| SMILES | IC50 |
| --- | --- |
| N#CSc1ccc(C(=O)c2ccc(SC#N)c([N+](=O)[O-])c2)cc1[N+](=O)[O-] [IV, Bis(4-thiocyano-3-nitrophenyl)methanone] | 5.8 ± 2 µM |
| N#CSc1cccc(C(=O)c2cccc(SC#N)c2)c1 [VI, Bis(3-thiocyanophenyl)methanone] | 3.6 ± 1.2 µM |
| N#CSc1cccc(C(=O)c2ccccc2)c1 [II, 3-Benzoylphenyl thiocyanate] | 1.7 ± 0.4 µM |
| N#CSc1ccc(C(=O)c2ccccc2)cc1 [III, 4-Benzoylphenyl thiocyanate] | 1.2 ± 0.5 µM |
| N#CSc1ccc(C(=O)c2ccc(SC#N)cc2)cc1 [V, Bis(4-thiocyanophenyl)methanone] | 4.3 ± 2.4 µM |
